Biological target: T1, lipase enzyme (Thermomyces lanuginosus, UniProt O59952, N255R/T253R)
T1 construct: purchased Novozymes LIPEX 100 L
Experiment: Washing test: total hydrolysis of rapeseed oil on a polyester swatch by lipase-containing washing liquor, free oleic acid quantified by HPLC
Assay type: biochemical
Details: about 100 ppm by weight surfactant; lipase concentrate about 0.2 g/l; pH about 9.6; about 50° C.; water hardness 2 fH
Method: The total hydrolysis of rapeseed oil in a wash process was tested with washing liquors that were always comprising the same concentration of a lipase enzyme concentrate. A blank test was performed without any added surfactant. This blank test served as the reference with which could be compared the other results obtained with the same washing liquor samples into which one of a number of different non-ionic surfactants were added.
In the experiments, the lipase concentrate was always present in a concentration of about 0.2 gram of the concentrate per litre of total liquor.
The washing tests were performed at a temperature of about 50° C. The water in the formulations was demineralised water obtained by reverse osmosis (RO).
Different washing liquors were prepared containing about 100 ppm by weight of a selected surfactant, to be compared with a blank liquor containing only the lipase enzyme concentrate and no surfactants.
For each liquor was tested the appearance of free oleic acid generated from the hydrolysis of a standard amount of rapeseed oil with which the liquor was brought in contact. Monitored by High Performance Liquid Chromatography (HPLC) was the quantitative release of free oleic acid (C18:1 fatty acid) in the washing liquor and/or present on the textile, as explained as part of the protocols below. Because oleic acid is the main fatty acid in the triglycerides of rapeseed oil, the generation of this acid as free fatty acid it is an excellent quantitative marker for the hydrolysis of rapeseed oil, in this context thus also for the activity of the lipase enzyme.
A series of tests were performed using water having a hardness of 2 fH. […] For each surfactant choice 2 duplicate samples were tested, except for Sample J (3 duplicates) and Sample K (only 1 sample tested). […] Also shown for each bar with a surfactant is an error bar showing the difference between the lowest and the highest of the duplicates.
The washing tests consisted of contacting at 50° C. a washing liquor containing the selected surfactant together with 0.2 grams per litre of the lipase enzyme concentrate and having a pH of 9.6 with a polyester swatch type W30-A (PES W30-A textile swatch obtained from the company Center For Testmaterials BV (NL)) that has been pre-treated with an amount of rapeseed oil such that the textile swatch contained about 1.5 grams of rapeseed oil on a total weight of slightly over 8 grams of pre-treated swatch.
The pre-treatment consisting of distributing a generous amount of rapeseed oil over the swatch by means of a paint roller. After applying the rapeseed oil onto the swatch, the impregnated swatch was left to dry for 48 hours between two layers of textile for assuring saturation and for absorbing the excess, after which the swatch was weighed on an analytical balance. The difference with the weight of the swatch before applying the rapeseed oil provides the amount of rapeseed oil that was present on the swatch.
In a 600 ml beaker is introduced 500 grams of the stock solution that was prepared in step 2, and this is brought up to a temperature of […] under stirring by means of a mixer submerged close to the bottom of the beaker at about 200 rpm. To this stock solution is then added 100 microliter (“μl”) of the concentrate of the lipase enzyme. Into this warm solution is then introduced the textile (i.e. the pre-treated PES swatch) to be tested, and the time counting of 10 minutes is started. Where a surfactant should be included, 50 milligram thereof is added into the beaker prior to introducing the lipase enzyme and of the textile.
After the 10 minutes contacting time provided in part 1, about 30 grams of the wash water (or wash liquor) is introduced into the 250 ml beaker containing the buffer solution and the formic acid. The formic acid serves to inactivate the lipase enzyme, so that the reaction is stopped. The total weight of the beaker content is noted and should be ±35 grams.
The dried textile is first weighed. […]

T1 sequence (O59952 23-291 T253R/N255R): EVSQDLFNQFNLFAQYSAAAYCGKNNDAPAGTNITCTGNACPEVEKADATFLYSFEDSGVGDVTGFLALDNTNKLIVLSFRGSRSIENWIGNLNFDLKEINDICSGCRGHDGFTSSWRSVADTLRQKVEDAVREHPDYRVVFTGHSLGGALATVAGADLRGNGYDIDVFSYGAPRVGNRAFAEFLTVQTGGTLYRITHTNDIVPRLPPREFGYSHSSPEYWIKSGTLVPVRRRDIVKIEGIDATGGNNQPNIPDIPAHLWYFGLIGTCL

Substance | effect of the surfactant on lipase activity in the washing liquor (in words, FIG. 1)
5EO-C13-C15 [M] | relatively benign
5EO-isoC13 | not better than the conventional LES surfactant
7EO-C13-15 [N] | much larger depressing effect
7EO-isoC13 [F] | not better than the conventional LES surfactant
9EO-isoC13 [G] | not better than the conventional LES surfactant
10EO-isoC13 [H] | not better than the conventional LES surfactant
C8-C10 APG-DP of 1.7 [Sample K] | much lower depressing effect
C8-C10 alkyl polyglucoside (APG) with an average degree of polymerisation (DP) of 1.5 | much lower depressing effect
C8-C16 APG-DP of 1.5 [Sample J] | much lower depressing effect
C9-C11 fatty alcohol alkoxylated with an average ethoxylation degree of about 6 and an average propoxylation degree of about 4 [Sample O] | worse than the LES reference
C12-C14 amine oxide [P] | significant boost
a mixture of linear C13-C15 alcohol that has been ethoxylated to an average degree of about 3 | relatively benign
isotridecyl alcohol ethoxylated to an average degree of ethoxylation of about 3 | not better than the conventional LES surfactant

Same assay, conditions: about 100 ppm by weight surfactant; lipase concentrate about 0.2 g/l; pH about 9.6; about 50° C.; water hardness 2 fH; 10 minute washing test

Substance | relative lipase activity relative to the blank liquor (A) set at 100%
Linear Alkyl Benzene Sulphonate [Sample B] | 12%

Biological target: T1, lipase enzyme
Experiment: as above
Assay type: biochemical
Details: Example 5, surfactant concentration series

Substance | surfactant concentration at which the suppressing activity already becomes noticeable | surfactant concentration until which the suppressing effect further grows (about the same up to 250 ppm by weight)
5EO-isoC13 | 10 ppm by weight | about 100 ppm by weight
